In patent publication US10508088B2, “Methods using HDAC11 inhibitors” (FORMA Therapeutics, Inc., priority 2016, dated 2019):

Target: Recombinant N-terminal GST tag full-length human HDAC11 (Homo sapiens (Human), UniProt Q96DB2)
Assay: Probe binding HDAC11 assay, time resolved fluorescence (TRF)
Settings: read-out: HDAC11 IC50 Range
Method: The probe binding HDAC11 assay was performed using a time resolved fluorescence (TRF) assay format. Recombinant N-terminal GST tag full-length human HDAC11 was expressed and purified from baculovirus in Sf9 insect cells (SignalChem, # H93-30G-1000). Each assay was performed in 1536 black well microplates (Corning, #3936) in a final volume of 8 μL in assay buffer containing 50 mM HEPES (pH 7.5), 50 mM KCl, 50 mM NaCl, 0.5 mM GSH (L-Glutathione reduced, Sigma #G4251), 0.03% BGG (0.22 μM filtered, Sigma, #G7516-25G), and 0.01% Triton X-100 (Sigma, #T9284-10L). 100 nL of 10-point, 3-fold serial dilution in DMSO was pre-dispensed into respective wells of 1536 assay plates for a final test concentration range of 25 μM to 1.3 nM respectively. The final concentration in the assay of HDAC11 and probe (a fluorescein labeled HDAC 11 inhibitor) was 2.5 nM and 20 nM respectively. 4 μL of 2× probe and 2× anti-GST Terbium (Cisbio, #61GSTXLB) was added to assay plates followed by 4 μL of 2×HDAC11. Plates were incubated for 16 hours at room temperature before time resolved fluorescence was read on the Envision (Excitation at 340 nm, and Emission at 485 nm and 535 nm, Perkin Elmer).
Data from HDAC11 Assays were reported as percent inhibition (inh) compared with control wells based on the following equation: % inh=1−((FLU−AveLow)/(AveHigh−AveLow)) where FLU=measured time resolved fluorescence. AveLow=average time resolved fluorescence of no enzyme control (n=32). AveHigh=average time resolved fluorescence of DMSO control (n=32). IC50 values were determined by curve fitting of the standard 4 parameter logistic fitting algorithm included in the Activity Base software package: IDBS XE Designer Model205. Data is fitted using the Levenburg Marquardt algorithm.

Chain of Recombinant N-terminal GST tag full-length human HDAC11 (Q96DB2 whole entry): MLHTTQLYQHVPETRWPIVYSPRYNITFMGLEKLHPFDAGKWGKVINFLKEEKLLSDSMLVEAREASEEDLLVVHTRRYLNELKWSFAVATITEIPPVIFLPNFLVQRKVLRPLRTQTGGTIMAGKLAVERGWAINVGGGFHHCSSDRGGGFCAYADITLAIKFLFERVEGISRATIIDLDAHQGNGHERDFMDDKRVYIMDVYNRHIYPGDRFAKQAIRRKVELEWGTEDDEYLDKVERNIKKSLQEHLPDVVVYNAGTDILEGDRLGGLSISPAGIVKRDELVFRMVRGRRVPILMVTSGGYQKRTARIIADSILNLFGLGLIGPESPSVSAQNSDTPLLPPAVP

SMILES	IC50 [nM]
Cn1c(Nc2cccc(C(=O)NO)c2)nc2cc(-c3cccnc3)c(C(F)(F)F)cc21 [Example 35-1, N-hydroxy-3-((1-methyl-5-(pyridin-3-yl)-6-(trifluoromethyl)-1H-benzo[d]imidazol-2-yl)amino)benzamide]	500 to 1000
O=C(NO)c1cccc(Nc2nc3cc(-c4ccccc4)c(C(F)(F)F)cc3[nH]2)c1 [Example 36-1, N-hydroxy-3-((5-phenyl-6-(trifluoromethyl)-1H-benzo[d]imidazol-2-yl)amino)benzamide]	< 500
O=C(NO)c1cccc(Nc2nc3ccccc3[nH]2)c1 [Example 8-1, 3-(1H-benzo[d]imidazol-2-ylamino)-N-hydroxybenzamide]	> 1000
N#Cc1cc2nc(Cc3cccc(C(=O)NO)c3)[nH]c2cc1C(F)(F)F [Example 27-1, 3-((5-cyano-6-(trifluoromethyl)-1H-benzo[d]imidazol-2-yl)methyl)-N-hydroxybenzamide]	< 500
Cn1c(Nc2cccc(C(=O)NO)c2)nc2cc(F)c(C#N)cc21 [Example 12-1, 3-(6-cyano-5-fluoro-1-methyl-1H-benzo[d]imidazol-2-ylamino)-N-hydroxybenzamide]	< 500
CN(C)c1ccc(-c2cc3[nH]c(Nc4cccc(C(=O)NO)c4)nc3cc2C(F)(F)F)cn1 [Example 36-12, 3-((6-(6-(dimethylamino)pyridin-3-yl)-5-(trifluoromethyl)-1H-benzo[d]imidazol-2-yl)amino)-N-hydroxybenzamide]	< 500
COCCn1c(Nc2cccc(C(=O)NO)c2)nc2c(OC)cccc21 [Example 24-1, N-hydroxy-3-((4-methoxy-1-(2-methoxyethyl)-1H-benzo[d]imidazol-2-yl)amino)benzamide]	> 1000
O=C(NO)c1cccc(Nc2nc3cc4c(cc3[nH]2)OCCO4)c1 [Example 33-9, 3-((6,7-dihydro-1H-[1,4]dioxino[2′,3′:4,5]benzo[1,2-d]imidazol-2-yl)amino)-N-hydroxybenzamide]	500 to 1000
CN(c1cccc(C(=O)NO)c1)c1nc2cc(C(F)(F)F)c(-c3ccccc3)cc2n1C [Example 34-3, N-hydroxy-3-(methyl(1-methyl-6-phenyl-5-(trifluoromethyl)-1H-benzo[d]imidazol-2-yl)amino)benzamide]	500 to 1000
O=C(NO)c1cccc(Nc2nc3cc(F)c(C(F)(F)F)cc3[nH]2)c1 [Example 33-5, 3-((5-fluoro-6-(trifluoromethyl)-1H-benzo[d]imidazol-2-yl)amino)-N-hydroxybenzamide]	< 500
O=C(NO)c1cccc(Nc2cc3cc(Cl)c(Cl)cc3[nH]2)c1 [Example 28-1, 3-((5,6-dichloro-1H-indol-2-yl)amino)-N-hydroxybenzamide]	< 500
Cn1c(Nc2cccc(C(=O)NO)c2)nc2cc(C(F)(F)F)c(-c3cccnc3)cc21 [Example 35-2, N-hydroxy-3-((1-methyl-6-(pyridin-3-yl)-5-(trifluoromethyl)-1H-benzo[d]imidazol-2-yl)amino)benzamide]	< 500
COCCn1c(Nc2cccc(C(=O)NO)c2)nc2ccccc21 [Example 23-1, N-hydroxy-3-((1-(2-methoxyethyl)-1H-benzo[d]imidazol-2-yl)amino)benzamide]	> 1000
O=C(NO)c1cccc(Nc2nc3cc(C(F)(F)F)ccc3[nH]2)c1 [Example 33-22, N-hydroxy-3-((5-(trifluoromethyl)-1H-benzo[d]imidazol-2-yl)amino)benzamide]	< 500
O=C(NO)c1cccc(Nc2nc3cc(F)c(Cl)cc3[nH]2)c1 [Example 33-1, 3-((6-chloro-5-fluoro-1H-benzo[d]imidazol-2-yl)amino)-N-hydroxybenzamide]	< 500
COc1cc2nc(Nc3cccc(C(=O)NO)c3)[nH]c2cc1Cl [Example 33-19, 3-((6-chloro-5-methoxy-1H-benzo[d]imidazol-2-yl)amino)-N-hydroxybenzamide]	500 to 1000
